How the values were obtained:
[1] = tested on: segment of the DNA duplex specified by DpnII; assay: Dissociation force of drug-DNA binding, segment chosen by DpnII; details: for order of binding strength (dissociation force): DNA segment chosen by addition of DpnII, FIG. 5C red section
Excerpt: (§6) The dissociation force can be further used to quantitatively distinguish the binding strength of different drug molecules at each and every specific nucleotide sequence. […] This segment is specifically chosen because of the addition of enzyme DpnII.

[2] = tested on: DNA duplex, EcoRI binding site; assay: Multiplexed sample wells, ultrasound force through a piezo plate, EcoRI; details: 100 μM drug, lane 4
Procedure: (§1) A shown in FIG. 7A, a new system was designed consisting of a puncher, an incubator, and a displayer. After incubating the sample, the puncher will be used to break the bottom of the incubator so the sample will be transferred to the corresponding wells on the displayer. The bottom of the displayer was functionalized, for example with streptavidin, so that magnetic particles will be able to be immobilized through a labeled DNA duplex, for example with biotin. A mechanical force is then applied on the displayer followed by final inspection and measurement.
(§2) The samples within each lane were under identical conditions. 1: DNA duplex with 100 μM daunorubicin and DpnII; 2: DNA duplex with 100 μM netropsin and DpnII; 3: DNA duplex; 4: DNA duplex incubated with 100 μM daunomycin and EcoRI; 5: DNA duplex with 100 μM netropsin and ECoRI. After applying ultrasound through a piezo plate, only the particles in lanes 2 and […] were removed, indicating weak binding between netropsin and CTAG (lane 2), and between daunomycin and the EcoRI binding site (lane 4).

DNA = assay: Laser transmission quantification of immobilized particles at different drug concentrations; format: binding; details: fitting of transmission profile vs drug concentration
Excerpt: The detection was achieved by using a photodetector (DET100A, Thorlabs) coupled with a voltmeter. […] Fitting of the profile yielded a binding constant of 9±2×10^4 M^−1, consistent with the results using a sensitive atomic magnetometer.

[3] = tested on: DNA duplex, enzyme-binding segment for DpnII; assay: Force-modulated drug-DNA binding determination with DNA-cleaving enzyme DpnII (visual particle immobilization); details: DpnII present; after ~1 pN force
Excerpt: (§3) To determine the exact binding site of drugs on nucleic acids, a derived scheme contains a magnetically labeled DNA and its complementary strand, in the presence of the drug to be analyzed and a DNA-cleaving enzyme. The binding site of the drug can be precisely determined by force modulation following surface immobilization.
(§4) FIG. 1D can be utilized to illustrate a system 100 for measuring drug-DNA binding. A magnetically labeled DNA strand 102 is hybridized with its complementary strand 104, in the presence of a drug molecule 106 and a DNA-cleaving enzyme 107. If the drug binds with the DNA specifically at the location of the enzyme, the enzyme will not be able to cleave the duplex. Consequently, the magnetic particles will be able to be immobilized on the surface via the biotin 105 on complementary strand 104, showing yellowish color in image 108(a) and being assigned as “1”. […] Thus, the magnetic particles will not be able to bind with the surface because of the absence of a functional group (such as biotin 105 shown in FIG. 1D) to interact with the matching functional group on the surface, showing as clear and being assigned as “0” in image 108(b).
(§5) The derived scheme presented in FIG. 1D was used to precisely determine the binding sites of drug molecules. […]

[4] = tested on: DNA duplex, enzyme-binding segment for EcoRI; assay: Force-modulated drug-DNA binding determination with DNA-cleaving enzyme EcoRI (visual particle immobilization); details: EcoRI present; after ~1 pN force
Excerpt: as §3, §4, §5

[5] = relative to doxorubicin; cited from earlier work
DNA duplex, CTAG (DpnII) = assay: Multiplexed sample wells, ultrasound force through a piezo plate, DpnII; format: binding; details: 100 μM drug, lane 2
Procedure: as §1, §2

[6] = tested on: segment of the DNA duplex specified by EcoRI; assay: Dissociation force of drug-DNA binding, segment specified by EcoRI; details: FIG. 5C blue section
Excerpt: as §6

Row | SMILES | order of binding strength (dissociation force) [1] | binding with the EcoRI binding site after ultrasound [2] | binding constant (DNA) | blocking of DpnII binding site on DNA duplex (particle immobilization) [3] | blocking of EcoRI on DNA duplex (particle immobilization) [4] | sequence selectivity of DNA binding ([1]; comparison of DpnII and EcoRI segments) | toxicity in chemotherapy [5] | binding with CTAG after ultrasound (DNA duplex, CTAG (DpnII)) | rank of binding strength (dissociation force) [6]
1 | COc1cccc2c1C(=O)c1c(O)c3c(c(O)c1C2=O)C[C@@](O)(C(C)=O)C[C@@H]3O[C@H]1C[C@H](N)[C@H](O)[C@H](C)O1 [daunomycin] | daunomycin, doxorubicin > epirubicin >> daunomycin >> netropsin | weak binding | 9±2×10^4 M^−1 | blocked the binding site of DpnII | could not |  |  |  | 
2 | COc1cccc2c1C(=O)c1c(O)c3c(c(O)c1C2=O)C[C@@](O)(C(=O)CO)C[C@@H]3O[C@H]1C[C@H](N)[C@H](O)[C@H](C)O1 [doxorubicin] | daunomycin, doxorubicin > epirubicin >> daunomycin >> netropsin |  |  |  |  |  |  |  | 
3 | COc1cccc2c1C(=O)c1c(O)c3c(c(O)c1C2=O)C[C@@](O)(C(=O)CO)C[C@@H]3O[C@H]1C[C@H](N)[C@@H](O)[C@H](C)O1 [epirubicin] | daunomycin, doxorubicin > epirubicin >> daunomycin >> netropsin |  |  |  |  | more sequence-selective than doxorubicin | less toxic |  | 
4 | Cn1cc(NC(=O)c2cc(NC(=O)CN=C(N)N)cn2C)cc1C(=O)NCCC(=N)N [netropsin] | daunomycin, doxorubicin > epirubicin >> daunomycin >> netropsin |  |  | does not interfere with the binding of DpnII | able to block EcoRI |  |  | weak binding | second strongest
